Where “and” joins values, the source holds several entries; their conditions need not be identical. Identical values can stand only once. Like-named read-outs stand apart in the source and are kept apart here.
Details: 1 mg single oral dose, fasting; for AUC0-∞: not corrected by dose/weight
Protocol: The data used in this work were obtained from four bioequivalence clinical trials conducted at the Clinical Trials Unit of the Hospital Universitario de La Princesa (UECHUP) (EUDRA-CT IDs: 2012-004433-17, 2013-002159-14, 2014-001123-77 and 2021-000315-23). […] The reference formulation (R) in all cases was Azilect® 1 mg tablets (TEVA Pharmaceuticals Europe B.V.), which was compared against different test formulations (T), all of them 1 mg tablets, except in clinical trial 3, whose test formulation was orodispersible 1 mg. The four bioequivalence trials had two periods and two sequences (TR and RT). In the first period, the volunteers randomly were administered one of the two formulations and, in the following period, after a 7-day washout period, the opposite formulation. All of them were reviewed and approved by Independent Ethics Board (IEB) of the Hospital Universitario de La Princesa, and by the Spanish Drug Agency (AEMPS). In addition, they were performed in accordance with the guidelines of the International Conference on Harmonization for Good Clinical Practice (ICH-GCP), current Spanish legislation and the Revised Declaration of Helsinki. The pharmacogenetic study (SFC-FG-2020-1) was likewise approved by the IEB of Hospital Universitario de La Princesa (registry number 4176, 9 July 2020).
In each period, the drug was administered under fasting conditions, which were maintained until 5 h after drug administration. Each subject provided 20 or 21 blood samples (depending on the clinical trial) that were extracted by BD Vacutainer® vacuum system with EDTA K2 tubes for analysis at different times between 0 h (before receiving the drug) and up to 12 h after drug intake. […] A high-performance liquid chromatography coupled to triple quadrupole mass spectrometry (HPLC-MS/MS) analytical method was used. The latter was validated according to European regulations for bioequivalence assessment, with a lower limit of quantification (LLOQ) of 10 pg/mL and a calibration range of 10–10,000 pg/mL.
Pharmacokinetic parameters were calculated with WinNonlin Professional (Scientific Consulting, Inc., Cary, NC, USA) following a non-compartmental model. The area under the curve (AUC0-t), was obtained by the trapezoidal method. The extrapolation to infinity (AUC0-∞) was determined by the sum of two partial AUCs: AUCt-∞ calculated by the ratio Ct/k, where Ct is the last detectable concentration and k the elimination slope; plus AUC0-t. Cmax and tmax were directly obtained from the plasma time-concentration curves. t1/2 was calculated as Ln2/k. Plasma clearance adjusted for bioavailability (Cl/F) was calculated as dose/AUC. Finally, the volume of distribution adjusted for bioavailability (Vd/F) was calculated by dividing Cl/F by k.
The SPSS software (v23.0, SPSS Inc., Chicago, IL, USA) was used for statistical analyses. AUC0-∞, and Cmax were divided by the dose/weight (DW) ratio to correct sex-related variability related to a varying weight. For the same purpose, Vd/F and Cl/F were divided by weight. With the purpose of normalizing their distributions, all pharmacokinetic parameters were logarithmically transformed for statistical analysis. Initially, a univariate analysis was conducted of the demographic characteristics according to sex and ethnicity, and of the pharmacokinetic parameters or ADR incidence based on sex, biogeographical group (hereinafter, “ethnicity”), genotypes and phenotypes. T-tests were used for the comparison of means for variables with two categories and ANOVA tests for variables with three or more categories, followed by a Bonferroni post-hoc. The Shapiro–Wilk test was used to address the normality of demographic characteristics. For those not following a normal distribution, the nonparametric Kruskal–Wallis test was used.

[1] = SLC22A1*3 (rs12208357) *1/*1, n=104
[2] = SLC22A1*3 (rs12208357) *1/*3, n=8
[3] = SLC22A1*5 (rs34059508) *1/*1, n=113
[4] = SLC22A1*5 (rs34059508) *1/*5, n=5
[5] = Total with CYP1A2 diplotype, n=115
[6] = the single volunteer with the ADR headache

SMILES: C#CCN[C@@H]1CCc2ccccc21 [rasagiline, Rasagiline]
- tmax (CYP2C19 µM, n=3): 0.61 ± 0.35 h
- AUC0-∞/DW (CYP2C19 IM, n=36): 258.70 ± 75.90 ng·kg·h/mL/mg
- Cmax/DW (CYP2C19 IM, n=36): 415.50 ± 185.56 ng·kg/mL/mg
- t1/2 (CYP2C19 IM, n=36): 2.85 ± 0.84 h
- tmax (CYP2C19 IM, n=36): 0.46 ± 0.22 h
- AUC0-∞/DW (CYP2C19 NM, n=56): 267.83 ± 70.38 ng·kg·h/mL/mg
- Cmax/DW (CYP2C19 NM, n=56): 402.65 ± 142.62 ng·kg/mL/mg
- t1/2 (CYP2C19 NM, n=56): 2.67 ± 0.91 h
- tmax (CYP2C19 NM, n=56): 0.53 ± 0.27 h
- AUC0-∞/DW (CYP2C19 PM, n=2): 302.71 ± 14.98 ng·kg·h/mL/mg
- Cmax/DW (CYP2C19 PM, n=2): 412.92 ± 55.36 ng·kg/mL/mg
- t1/2 (CYP2C19 PM, n=2): 1.55 ± 0.41 h
- tmax (CYP2C19 PM, n=2): 0.75 ± 0.11 h
- AUC0-∞/DW (CYP2C19 RM, n=21): 274.03 ± 86.22 ng·kg·h/mL/mg
- Cmax/DW (CYP2C19 RM, n=21): 426.69 ± 180.45 ng·kg/mL/mg
- t1/2 (CYP2C19 RM, n=21): 2.66 ± 0.85 h
- tmax (CYP2C19 RM, n=21): 0.41 ± 0.11 h
- AUC0-∞/DW (Caucasian, n=83): 258.45 ± 71.81 ng·kg·h/mL/mg
- Cmax/DW (Caucasian, n=83): 418.18 ± 169.33 ng·kg/mL/mg
- t1/2 (Caucasian, n=83): 2.56 ± 0.84 h
- tmax (Caucasian, n=83): 0.47 ± 0.19 h
- AUC0-∞/DW (Men, n=53): 278.61 ± 73.51 ng·kg·h/mL/mg
- Cmax/DW (Men, n=53): 447.91 ± 163.88 ng·kg/mL/mg
- t1/2 (Men, n=53): 2.31 ± 0.85 *^& h
- tmax (Men, n=53): 0.52 ± 0.28 h
- AUC0-∞/DW (Mixed ethnicity, n=35): 281.05 ± 80.09 ng·kg·h/mL/mg
- Cmax/DW (Mixed ethnicity, n=35): 389.35 ± 147.25 ng·kg/mL/mg
- t1/2 (Mixed ethnicity, n=35): 2.95 ± 0.94 h
- tmax (Mixed ethnicity, n=35): 0.55 ± 0.31 h
- AUC0-∞/DW (NAT2 RA, n=9): 230.53 ± 67.28 ng·kg·h/mL/mg
- Cmax/DW (NAT2 RA, n=9): 315.46 ± 178.72 ng·kg/mL/mg
- t1/2 (NAT2 RA, n=9): 2.72 ± 0.68 h
- tmax (NAT2 RA, n=9): 0.50 ± 0.24 h
- AUC0-∞/DW (NAT2 SA, n=103): 266.53 ± 75.05 ng·kg·h/mL/mg
- Cmax/DW (NAT2 SA, n=103): 420.47 ± 161.94 (pu = 0.018, pm = 0.018) ng*kg/mL*mg
- t1/2 (NAT2 SA, n=103): 2.62 ± 0.83 h
- tmax (NAT2 SA, n=103): 0.49 ± 0.24 h
- AUC0-∞/DW [1]: 265.80 ± 73.86 ng·kg·h/mL/mg
- Cmax/DW [1]: 401.10 ± 159.35 ng·kg/mL/mg
- t1/2 [1]: 2.71 ± 0.89 h
- tmax [1]: 0.51 ± 0.24 h
- AUC0-∞/DW [2]: 258.87 ± 34.73 ng·kg·h/mL/mg
- Cmax/DW [2]: 473.14 ± 99.07 ng·kg/mL/mg
- t1/2 [2]: 2.22 ± 0.81 h
- tmax [2]: 0.35 ± 0.11 (pu = 0.038 pm = 0.032) h
- AUC0-∞/DW [3]: 267.52 ± 75.21 ng·kg·h/mL/mg
- Cmax/DW [3]: 415.96 ± 161.85 ng·kg/mL/mg
- t1/2 [3]: 2.70 ± 0.89 h
- tmax [3]: 0.49 ± 0.23 h
- AUC0-∞/DW [4]: 211.83 ± 36.15 ng·kg·h/mL/mg
- Cmax/DW [4]: 266.58 ± 130.60 (pu = 0.022, pm = 0.003) ng*kg/mL*mg
- t1/2 [4]: 2.24 ± 0.71 h
- tmax [4]: 0.67 ± 0.24 (pu = 0.018) h
- AUC0-∞/DW [5]: 265.29 ± 75.63 ng·kg·h/mL/mg
- Cmax/DW [5]: 411.77 ± 164.35 ng·kg/mL/mg
- t1/2 [5]: 2.66 ± 0.89 h
- tmax [5]: 0.49 ± 0.24 h
- AUC0-∞/DW (Total, n=118): 265.16 ± 74.74 ng·kg·h/mL/mg
- Cmax/DW (Total, n=118): 409.63 ± 163.00 ng·kg/mL/mg and 409.63 ± 163.01 ng·kg/mL/mg
- t1/2 (Total, n=118): 2.68 ± 0.89 h
- tmax (Total, n=118): 0.49 ± 0.24 h
- AUC0-∞/DW (UGT1A6 rs7592281 G/G, n=111): 264.10 ± 73.64 ng·kg·h/mL/mg
- Cmax/DW (UGT1A6 rs7592281 G/G, n=111): 409.07 ± 159.30 ng·kg/mL/mg
- t1/2 (UGT1A6 rs7592281 G/G, n=111): 2.66 ± 0.89 h
- tmax (UGT1A6 rs7592281 G/G, n=111): 0.48 ± 0.22 h
- AUC0-∞/DW (UGT1A6 rs7592281 G/T, n=7): 281.88 ± 95.76 ng·kg·h/mL/mg
- Cmax/DW (UGT1A6 rs7592281 G/T, n=7): 418.57 ± 229.87 ng·kg/mL/mg
- t1/2 (UGT1A6 rs7592281 G/T, n=7): 3.03 ± 0.72 h
- tmax (UGT1A6 rs7592281 G/T, n=7): 0.70 ± 0.32 (pu = 0.021, pm = 0.029) h
- AUC0-∞/DW (Women, n=65): 254.19 ± 74.50 ng·kg·h/mL/mg
- Cmax/DW (Women, n=65): 378.42 ± 156.70 ng·kg/mL/mg
- t1/2 (Women, n=65): 2.98 ± 0.80 h
- tmax (Women, n=65): 0.48 ± 0.19 h
- AUC0-∞ (men): 3.71 ± 0.88 ng·h/mL
- AUC0-∞/DW [6]: 197.49 ng·kg·h/mL/mg
- Cmax/DW [6]: 339.71 ng·kg/mL/mg
- AUC0-∞ (women): 4.29 ± 1.41 ng·h/mL

From paper PMC9610285 (Pharmaceutics, 2022)
